The values that follow come from patent US4575554A, “Substituted 2-pyridylmethylthio- and sulfinyl-benzimidazoles as gastric antisecretory agents” (The Upjohn Company, priority 1984, dated 1986).

SMILES strings stand for the structures.

The target in one experiment is T1, (H^+ -K^+)ATPase (Rattus norvegicus, UniProt P09626).
T1 construct: from tissue; host or cells: rat, in vivo (endogenous enzyme)
Briefly: in vivo inactivation of (H^+ -K^+)ATPase in the rat. The following applies: shown to be the most effective.

A further experiment concerns gastric acid secretion. In words: inhibition of gastric acid secretion in the rat, duration of activity after subcutaneous administration. It counts as in vivo. Particulars: after 6 days, 50 mg/kg. The text has this: A significant advantage of certain of the compounds of the instant invention, particularly those of the Formula I wherein R1 is hydrogen, X is =S(O), R3 is methyl or ethyl, R4 is hydrogen, and R2 is methylthio, ethylthio, or propylthio, is their long duration of activity when administered subcutaneously. Thus, even after 6 days 2[(4-ethylthio-3-ethylpyridin-2-ylmethyl)sulfinyl]-benzimidazole and 2-[(4-ethylthio-3-methylpyridin-2-ylmethyl)sulfinyl]-benzimidazole inhibited gastric acid secretion in the rat 68 and 82%, respectively, when administered subcutaneously at a dose of 50 mg/kg.

The target of the next experiment is T2, gastric(H^+ -K^+)ATPase (Sus scrofa, UniProt P19156).
T2 construct: isolated hog gastric membranes enriched with gastric(H^+ -K^+)ATPase; from tissue; host or cells: hog gastric membranes
T2 sequence (P19156 2-1034 limits assumed): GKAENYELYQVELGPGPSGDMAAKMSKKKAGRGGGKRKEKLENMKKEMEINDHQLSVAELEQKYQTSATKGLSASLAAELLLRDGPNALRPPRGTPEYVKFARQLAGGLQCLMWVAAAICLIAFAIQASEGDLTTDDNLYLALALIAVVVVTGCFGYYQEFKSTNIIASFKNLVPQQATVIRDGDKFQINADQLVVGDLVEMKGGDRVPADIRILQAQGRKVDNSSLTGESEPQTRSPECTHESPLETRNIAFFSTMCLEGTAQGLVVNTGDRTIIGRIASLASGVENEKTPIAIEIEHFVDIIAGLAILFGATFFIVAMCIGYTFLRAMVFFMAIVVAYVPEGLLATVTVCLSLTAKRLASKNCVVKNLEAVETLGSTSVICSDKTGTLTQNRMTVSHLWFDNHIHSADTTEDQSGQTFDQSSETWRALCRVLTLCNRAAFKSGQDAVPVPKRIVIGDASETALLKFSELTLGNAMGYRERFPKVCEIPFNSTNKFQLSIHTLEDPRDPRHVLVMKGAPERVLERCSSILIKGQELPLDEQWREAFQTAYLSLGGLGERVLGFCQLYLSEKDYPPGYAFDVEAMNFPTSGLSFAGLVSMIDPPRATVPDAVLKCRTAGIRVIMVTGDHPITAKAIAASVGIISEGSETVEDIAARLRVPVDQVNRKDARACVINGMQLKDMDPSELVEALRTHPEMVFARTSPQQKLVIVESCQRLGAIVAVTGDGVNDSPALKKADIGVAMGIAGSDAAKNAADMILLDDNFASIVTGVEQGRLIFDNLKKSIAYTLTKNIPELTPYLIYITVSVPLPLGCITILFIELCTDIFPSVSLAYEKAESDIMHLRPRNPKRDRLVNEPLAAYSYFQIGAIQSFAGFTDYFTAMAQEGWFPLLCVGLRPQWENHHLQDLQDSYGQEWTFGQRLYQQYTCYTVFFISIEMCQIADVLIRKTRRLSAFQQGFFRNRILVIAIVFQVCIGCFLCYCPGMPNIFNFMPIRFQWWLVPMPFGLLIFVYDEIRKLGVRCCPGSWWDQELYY
T2 sequence (P18434 whole entry partner): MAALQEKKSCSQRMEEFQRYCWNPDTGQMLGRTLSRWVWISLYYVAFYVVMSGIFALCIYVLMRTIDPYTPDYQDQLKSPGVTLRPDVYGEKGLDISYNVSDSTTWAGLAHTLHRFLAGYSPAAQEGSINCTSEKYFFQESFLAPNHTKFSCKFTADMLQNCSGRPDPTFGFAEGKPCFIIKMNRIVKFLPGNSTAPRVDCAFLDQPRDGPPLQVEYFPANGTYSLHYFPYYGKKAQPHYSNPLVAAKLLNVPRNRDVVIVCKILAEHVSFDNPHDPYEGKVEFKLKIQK
Briefly: inhibition of K^+ -dependent ATP hydrolysis by isolated hog gastric membranes enriched with gastric (H^+ -K^+)ATPase. The following applies: shown to be the most effective, read-out: ID50 (the source's name). The experiment is classed as biochemical.

The subject of another experiment is isolated gastric glands. In words: inhibition of acid secretion in isolated gastric glands of the rabbit. It counts as cell-based. The following applies: Oryctolagus cuniculus, shown to be the most effective, read-out: ID50 (the source's name).

T1 sequence (P09626 2-1033 limits assumed): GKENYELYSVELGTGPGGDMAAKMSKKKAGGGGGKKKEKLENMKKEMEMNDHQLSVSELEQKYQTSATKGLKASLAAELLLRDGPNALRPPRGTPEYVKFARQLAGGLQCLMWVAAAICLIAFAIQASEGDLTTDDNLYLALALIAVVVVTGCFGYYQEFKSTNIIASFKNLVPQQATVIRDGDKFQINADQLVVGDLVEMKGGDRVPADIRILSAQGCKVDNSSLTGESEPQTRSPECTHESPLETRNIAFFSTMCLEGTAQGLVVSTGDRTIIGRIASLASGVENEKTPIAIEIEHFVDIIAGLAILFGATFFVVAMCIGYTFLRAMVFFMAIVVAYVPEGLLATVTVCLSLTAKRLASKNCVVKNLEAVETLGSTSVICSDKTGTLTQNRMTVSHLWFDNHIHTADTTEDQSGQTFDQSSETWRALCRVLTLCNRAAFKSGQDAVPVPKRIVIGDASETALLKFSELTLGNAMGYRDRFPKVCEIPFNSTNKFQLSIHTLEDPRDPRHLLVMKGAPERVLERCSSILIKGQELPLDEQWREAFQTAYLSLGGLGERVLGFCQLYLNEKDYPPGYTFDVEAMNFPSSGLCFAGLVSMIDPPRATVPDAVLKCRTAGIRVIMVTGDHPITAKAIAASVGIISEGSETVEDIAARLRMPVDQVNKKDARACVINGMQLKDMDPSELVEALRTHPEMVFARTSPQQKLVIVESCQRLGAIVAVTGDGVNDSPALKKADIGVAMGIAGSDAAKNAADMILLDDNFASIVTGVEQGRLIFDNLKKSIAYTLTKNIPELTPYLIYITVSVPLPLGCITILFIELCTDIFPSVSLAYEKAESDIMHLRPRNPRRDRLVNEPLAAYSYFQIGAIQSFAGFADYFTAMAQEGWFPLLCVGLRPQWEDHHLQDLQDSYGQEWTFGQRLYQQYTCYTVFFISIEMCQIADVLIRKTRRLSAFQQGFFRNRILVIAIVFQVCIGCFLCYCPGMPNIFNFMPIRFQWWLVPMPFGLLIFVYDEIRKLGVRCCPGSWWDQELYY
T1 sequence (P18598 whole entry partner): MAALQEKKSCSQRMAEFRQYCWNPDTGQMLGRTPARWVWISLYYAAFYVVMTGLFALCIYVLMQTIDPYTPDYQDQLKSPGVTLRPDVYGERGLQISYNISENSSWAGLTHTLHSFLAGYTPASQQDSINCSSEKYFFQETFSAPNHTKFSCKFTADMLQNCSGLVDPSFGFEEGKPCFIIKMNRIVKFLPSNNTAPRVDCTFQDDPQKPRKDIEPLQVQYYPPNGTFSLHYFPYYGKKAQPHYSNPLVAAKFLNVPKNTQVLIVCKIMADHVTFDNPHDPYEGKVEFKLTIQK

With `CCSc1ccnc(C[S+]([O-])c2nc3ccccc3[nH]2)c1C` (centres unmarked) [Compound 7, 2-[(4-ethylthio-3-methylpyridin-2-ylmethyl)sulfinyl]-benzimidazole], the 50% effective dose (ED50) – broadly, the dose at which the effect has come halfway, by size or by number of responders – at (H^+ -K^+)ATPase worked out at 1 mg/kg. Also, the “inhibition of gastric acid secretion” value with gastric acid secretion worked out at 82%. Turning to `CCc1c(OC)ccnc1C[S+]([O-])c1nc2ccccc2[nH]1` (centres unmarked) [Compound 15, 2-[(4-methoxy-3-ethylpyridin-2-ylmethyl)sulfinyl]-benzimidazole], at gastric(H^+ -K^+)ATPase, the IC50 stood at 3000 nM. With `CCSc1ccnc(C[S+]([O-])c2nc3ccccc3[nH]2)c1CC` (centres unmarked) [Compound 12, 2-[(4-ethylthio-3-ethylpyridin-2-ylmethyl)sulfinyl]-benzimidazole], the IC50 with isolated gastric glands came out at 100 nM. In the experiment with gastric acid secretion, the “inhibition of gastric acid secretion” value worked out at 68%.
